Experimental data from US6800297B2, “Porous COX-2 inhibitor matrices and methods of manufacture thereof” (Acusphere, Inc., priority 2000, dated 2004).

Experiment: In vitro dissolution of rofecoxib in T80/PBS
Assay type: physicochemical
Details: after 1 hour; PBS containing 0.08% Tween 80, 200 mL; FIG. 2, FIG. 3
Description: Rofecoxib containing materials (either tablets, or bulk rofecoxib powder, or porous rofecoxib matrix powder) containing 20-31 mg of rofecoxib were added to 200 mL of 5% dextrose at room temperature in a 600 mL beaker. For bulk rofecoxib powder and porous rofecoxib matrix powder the resulting suspension was stirred for 5 minutes. For tablets (either marketed rofecoxib tablets (VIOXX®) or porous rofecoxib matrix tablet) the resulting suspension was stirred for 3-4 minutes beyond the time required for complete tablet disintegration. A sample of the suspension (containing 0.050-0.077 mg of rofecoxib) was then transferred to the dissolution vessel.
Dissolution studies for rofecoxib were conducted in PBS (phosphate buffered saline) containing 0.08% Tween 80 (T80/PBS). The dissolution vessel was a 600 mL beaker containing 200 mL of T80/PBS, and was stirred Samples were removed via pipet and centrifuged for 5 minutes at 10,000 rpm. Samples were analyzed by HPLC for rofecoxib. Control samples (for total rofecoxib concentration in the suspension vessel) were removed via pipet, and dissolved in acetonitrile, and the resulting solutions analyzed by HPLC for rofecoxib. […]

- percent dissolved (relative to total rofecoxib concentration in the suspension vessel): 41%
SMILES: CS(=O)(=O)c1ccc(C2=C(c3ccccc3)C(=O)OC2)cc1 [rofecoxib, 4-[4-(methylsulfonyl)phenyl]-3-phenyl-2(5H)-furanone]
